Source: patent US20120309622A1, “HERBICIDES CONTAINING SUBSTITUTED THIEN-3-YL-SULPHONYLAMINIO(THIO)CARBONYL-TRIAZOLIN(ETHI)ONES” (BAYER INTELLECTUAL PROPERTY GMBH, priority 2001, published 2012)
Several values for one entry are separate records, joined by “and”; a condition that tells them apart may be missing. Identical values can stand only once. Like-named read-outs stand apart in the source and are kept apart here.

Experiments:
Assay type in all cases: in vivo
Abutilon theophrasti = assay: Post-emergence test/greenhouse, % damage after three weeks
Source text: (§1) The expected action for a given combination of two herbicides can be calculated as follows (cf. COLBY, S. R.: “Calculating synergistic and antagonistic responses of herbicide combinations”, Weeds 15, pages 20-22, 1967):
(§2) If • X=% damage by herbicide A (active compound of the formula I) at an application rate of p kg/ha and • Y=% damage by herbicide B (active compound of the formula II) at an application rate of q kg/ha and • E=the expected damage of herbicides A+B at an application rate of p+q kg/ha, then
(§3) If the actual damage exceeds the calculated value, the combination has a superadditive effect, that is to say a synergistic effect.
(§4) Test plants are grown under control conditions (temperature and light). Once the plants have reached a height of 5 to 15 cm, the test compound or the combination of test compounds is applied by spraying such that the particular amounts of active compound desired are applied per unit area. The concentration of the spray liquor is chosen so that the particular amounts of active compound desired are applied in 500 litres of water/ha.
(§5) Following the spray application, the plant containers are kept in the greenhouse under constant light and temperature conditions.
(§6) After three weeks, the degree of damage to the plants is rated in % damage in comparison to the development of the untreated control.
(§7) The figures denote: • 0%=no effect (like untreated control) • 100%=total destruction

Alopecurus myosuroides = assay: as above
Source text: as §1, §2, §3, §4, §5, §6, §7

Avena fatua = assay: as above
Source text: as §1, §2, §3, §4, §5, §6, §7

Chenopodium album = assay: as above
Source text: as §1, §2, §3, §4, §5, §6, §7

Cyperus esculentus = assay: as above
Source text: as §1, §2, §3, §4, §5, §6, §7

Digitaria sanguinalis = assay: as above
Source text: as §1, §2, §3, §4, §5, §6, §7

Ipomoea hederacea = assay: as above
Source text: as §1, §2, §3, §4, §5, §6, §7

Matricaria inodora = assay: as above
Source text: as §1, §2, §3, §4, §5, §6, §7

Setaria viridis = assay: as above; settings: for Setria viridis observed: post-emergence
Source text: as §1, §2, §3, §4, §5, §6, §7

Viola arvensis = assay: as above
Source text: as §1, §2, §3, §4, §5, §6, §7

Xanthium strumarium = assay: as above
Source text: as §1, §2, §3, §4, §5, §6, §7

Bromus secalinus = assay: as above; settings: Bromus secalinus, post-emergence, 504 h, read-out: Bromus secalinus observed
Protocol: as §1, §3
(§8) Test plants are grown under control conditions (temperature and light).
as §5, §6

Cassia tora = assay: as above
Protocol: as §1, §3, §8, §5, §6

Veronica persicaria = assay: as above
Protocol: as §1, §3, §8, §5, §6

test plants = assay: Post-emergence test/greenhouse, % damage after three weeks (further test plants, Tables A-1-30 to A-1-104)
Source text: as §1, §2, §3, §4, §5, §6, §7

Polygonum convolvolus = assay: Post-emergence test/greenhouse, % damage after three weeks
Eriochloa villosa = assay: as above
Galium aparine = assay: as above; settings: 4 g of ai/ha
Lolium perenne = assay: as above

## COC(=O)c1csc(C)c1S(=O)(=O)NC(=O)n1nc(OC)n(C)c1=O [I-2]
Abutilon theophrasti; 2 g of ai/ha
  Abutilon theophrasti observed: 60%
Abutilon theophrasti; 4 g of ai/ha
  Abutilon theophrasti observed: 70%
Abutilon theophrasti; 8 g of a.i./ha
  Activity against Abutilon theophrasti (%): 70%
Alopecurus myosuroides; 2 g of ai/ha
  Alopecurus myosuroides observed: 70% and 80%
Alopecurus myosuroides; 4 g of ai/ha
  Alopecurus myosuroides observed: 70% and 80%
Alopecurus myosuroides; 8 g of ai/ha
  Alopecurus myosuroides observed: 90% and 80%
Alopecurus myosuroides; 15 g of ai/ha
  Alopecurus myosuroides observed: 90% and 80%
Avena fatua; 2 g of ai/ha
  Avena fatua observed: 70% and 50% and 80%
Avena fatua; 4 g of ai/ha
  Avena fatua observed: 80% and 70% and 90%
Avena fatua; 8 g of ai/ha
  Avena fatua observed: 70% and 90%
Avena fatua; 15 g of ai/ha
  Avena fatua observed: 70%
Chenopodium album; 4 g of ai/ha
  Chenopodium album observed: 70%
Chenopodium album; 8 g of a.i./ha
  Activity against Chenopodium album (%): 70%
Chenopodium album; 8 g of ai/ha
  Chenopodium album observed: 85%
Chenopodium album; application rate 2 g of ai/ha
  Chenopodium album observed: 70%
Cyperus esculentus; 8 g of ai/ha
  Cyperus esculentus observed: 80% and 70%
Cyperus esculentus; 15 g of ai/ha
  Cyperus esculentus observed: 70%
Digitaria sanguinalis; 4 g of ai/ha
  Digitaria sanguinalis observed: 60%
Digitaria sanguinalis; 8 g of ai/ha
  Digitaria sanguinalis observed: 80% and 90%
Ipomoea hederacea; 2 g of ai/ha
  Ipomoea hederacea observed: 80%
Ipomoea hederacea; 4 g of ai/ha
  Ipomoea hederacea observed: 80%
Ipomoea hederacea; 8 g of ai/ha
  Ipomoea hederacea observed: 80%
Matricaria inodora; 2 g of ai/ha
  Matricaria inodora observed: 50% and 80%
Matricaria inodora; 4 g of ai/ha
  Matricaria inodora observed: 70%
Matricaria inodora; 15 g of ai/ha
  Matricaria inodora observed: 95%
Setaria viridis; 2 g of ai/ha
  Setaria viridis observed: 90%
Setaria viridis; 4 g of ai/ha
  Setaria viridis observed: 80% and 90%
Setaria viridis; 8 g of ai/ha
  Setaria viridis observed: 90% and 95%
Setaria viridis; application rate 2 g of ai/ha
  Setria viridis observed: 90%
Setaria viridis; application rate 4 g of ai/ha
  Setria viridis observed: 90%
Viola arvensis; 4 g of ai/ha
  Viola arvensis observed: 40%
Viola arvensis; 8 g of ai/ha
  Viola arvensis observed: 50%
Xanthium strumarium; 4 g of ai/ha
  Xanthium strumarium observed: 90%
Xanthium strumarium; 8 g of ai/ha
  Xanthium strumarium observed: 70%
Bromus secalinus; 2 g of ai/ha
  pest or weed control at 2 g/ha: 70%
Bromus secalinus; 4 g of ai/ha
  pest or weed control at 4 g/ha: 70%
Bromus secalinus; 8 g of ai/ha
  pest or weed control at 8 g/ha: 80%
Bromus secalinus; 15 g of ai/ha
  pest or weed control at 15 g/ha: 70%
Bromus secalinus; application rate 8 g of ai/ha
  pest or weed control at 8 g/ha: 80%
Cassia tora; 2 g of ai/ha
  Cassia tora observed: 20%
Cassia tora; 4 g of ai/ha
  Cassia tora observed: 0%
Cassia tora; 8 g of ai/ha
  Cassia tora observed: 0%
Veronica persicaria; 2 g of ai/ha
  Veronica persicaria observed: 0%
Veronica persicaria; 15 g of ai/ha
  Veronica persicaria observed: 60% and 40%
Test plants; application rate 2 g of ai/ha
  Polygonum convolvolus observed: 70%
Test plants; application rate 4 g of ai/ha
  Polygonum convolvolus observed: 80%
Test plants; application rate 8 g of ai/ha
  Polygonum convolvolus observed: 90%
Polygonum convolvolus; 2 g of ai/ha
  Polygonum convolvolus observed: 70%
Polygonum convolvolus; 4 g of ai/ha
  Polygonum convolvolus observed: 70% and 80%
Eriochloa villosa; 4 g of ai/ha
  Eriochloa villosa observed: 40% and 30%
Eriochloa villosa; 8 g of ai/ha
  Eriochloa villosa observed: 70% and 60% and 90%
Galium aparine
  Galium aparine observed: 80%
Lolium perenne; 2 g of ai/ha
  Lolium perenne observed: 70% and 80%
Lolium perenne; 4 g of ai/ha
  Lolium perenne observed: 70%
Lolium perenne; 8 g of ai/ha
  Lolium perenne observed: 90%
